Measured values from ChEMBL document CHEMBL5647694, “Novel orally bioavailable EZH1/2 dual inhibitors with greater antitumor efficacy than an EZH2 selective inhibitor” (Cancer Sci, 2017).

Key:
[1] = Toxicity in Crl:CD Sprague-Dawley rat assessed as chloride level in blood at 100 mg/kg, po administered daily for 14 days (reference value: 104 +/-1.5 mEq/L); assay type: organism-based; conditions: in vivo, 336 h, time 14 day
[2] = molecular target: Protein kinase C iota type (Homo sapiens) (UniProt P41743); test: Inhibition of N-terminal GST-fused human full length PKC-iota (1 to 587 residues ) expressed in baculovirus expression system using PKC peptide as substrate at 1 uM in presence of ATP by Mobility shift assay
KARPAS-422 = test: Antitumor activity against human KARPAS-422 cells xenografted in CB17/Icr-Prkdcscid/CrlCrlj mouse assessed as inhibition of tumor growth administered orally BID for 14 days; assay type: functional, cell-based; conditions: dose 3.1-50 mg/kg, route po, time 14.0 day
[3] = Toxicity in Crl:CD Sprague-Dawley rat assessed as abnormal clinical signs at 100 mg/kg, po administered daily for 14 days; assay type: organism-based; conditions: in vivo, 336 h, time 14 day
[4] = Toxicity in Crl:CD Sprague-Dawley rat assessed as atrophy of hepatocytes in liver at 100 mg/kg, po administered daily for 14 days by hematoxylin and eosin staining based analysis; assay type: organism-based; conditions: in vivo, 336 h, time 14 day
[5] = Toxicity in Crl:CD Sprague-Dawley rat assessed as alanine aminotransferase level in blood at 100 mg/kg, po administered daily for 14 days (reference value: 35.5+/-1.91 U/L); assay type: organism-based; conditions: in vivo, 336 h, time 14 day
[6] = Toxicity in Crl:CD Sprague-Dawley rat assessed as aspartate aminotransferase level in blood at 100 mg/kg, po administered daily for 14 days (reference value: 72+/-5.03 U/L); assay type: organism-based; conditions: in vivo, 336 h, time 14 day
[7] = Toxicity in Crl:CD Sprague-Dawley rat assessed as […] dehydrogenase level in blood at 100 mg/kg, po administered daily for 14 days (reference value: 103 +/-16.1 U/L); assay type: organism-based; conditions: in vivo, 336 h, time 14 day
[8] = Toxicity in Crl:CD Sprague-Dawley rat assessed as total cholesterol level in blood at 100 mg/kg, po administered daily for 14 days (reference value: 63.5 +/-[…]); assay type: organism-based; conditions: in vivo, 336 h, time 14 day
[9] = Toxicity in Crl:CD Sprague-Dawley rat assessed as neutrophil count in blood at 100 mg/kg, po administered daily for 14 days (reference value: 1.73+/-0.276 10^3/uL); assay type: organism-based; conditions: in vivo, 336 h, time 14 day
MKN-45 = test: Antitumor activity against human MKN-45 cells assessed as cell growth inhibition treated for 10 to 15 days; assay type: functional; conditions: time 10-15 day
Jurkat = test: Antitumor activity against human Jurkat cells clone E6-1 assessed as cell growth inhibition treated for 10 to 15 days; assay type: functional; conditions: time 10-15 day
[10] = Antitumor activity against human Kasumi-3 cells assessed as cell growth inhibition treated for 10 to 15 days; assay type: functional; conditions: time 10-15 day
RPMI-6666 = test: Antitumor activity against human RPMI-6666 cells assessed as cell growth inhibition treated for 10 to 15 days; assay type: functional; conditions: time 10-15 day
BT-549 = test: Antitumor activity against human BT-549 cells assessed as cell growth inhibition treated for 10 to 15 days; assay type: functional; conditions: time 10-15 day
KG-1 = test: Antitumor activity against human KG-1 cells assessed as cell growth inhibition treated for 10 to 15 days; assay type: functional; conditions: time 10-15 day
RPMI-8226 = test: Antitumor activity against human RPMI-8226 cells assessed as cell growth inhibition treated for 10 to 15 days; assay type: functional; conditions: time 10-15 day
ACHN = test: Antitumor activity against human ACHN cells assessed as cell growth inhibition treated for 10 to 15 days; assay type: functional; conditions: time 10-15 day
LNCaP-Clone-FGC = test: Antitumor activity against human LNCaP clone FGC cells assessed as cell growth inhibition treated for 10 to 15 days; assay type: functional; conditions: time 10-15 day
NCI-H446 = test: Antitumor activity against human NCI-H446 cells assessed as cell growth inhibition treated for 10 to 15 days; assay type: functional; conditions: time 10-15 day
SJRH30 = test: Antitumor activity against human SJRH30 cells assessed as cell growth inhibition treated for 10 to 15 days; assay type: functional; conditions: time 10-15 day
K562 = test: Antitumor activity against human K562 cells assessed as cell growth inhibition treated for 10 to 15 days; assay type: functional; conditions: time 10-15 day
U-266 = test: Antitumor activity against human U266B1 cells assessed as cell growth inhibition treated for 10 to 15 days; assay type: functional; conditions: time 10-15 day
[11] = Antitumor activity against human HUG1N cells assessed as cell growth inhibition treated for 10 to 15 days; assay type: functional; conditions: time 10-15 day
H9 = test: Antitumor activity against human H9 cells assessed as cell growth inhibition treated for 10 to 15 days; assay type: functional; conditions: time 10-15 day
Hs-578T = test: Antitumor activity against human Hs-578T cells assessed as cell growth inhibition treated for 10 to 15 days; assay type: functional; conditions: time 10-15 day
AGS = test: Antitumor activity against human AGS cells assessed as cell growth inhibition treated for 10 to 15 days; assay type: functional; conditions: time 10-15 day
NALM-6 = test: Antitumor activity against human NALM-6 cells assessed as cell growth inhibition treated for 10 to 15 days; assay type: functional; conditions: time 10-15 day
NUGC-3 = test: Antitumor activity against human NUGC-3 cells assessed as cell growth inhibition treated for 10 to 15 days; assay type: functional; conditions: time 10-15 day
CEM/C2 = test: Antitumor activity against human CEM/C2 cells assessed as cell growth inhibition treated for 10 to 15 days; assay type: functional; conditions: time 10-15 day
HGC-27 = test: Antitumor activity against human HGC-27 cells assessed as cell growth inhibition treated for 10 to 15 days; assay type: functional; conditions: time 10-15 day
[12] = Antitumor activity against human OV7 cells assessed as cell growth inhibition treated for 10 to 15 days; assay type: functional; conditions: time 10-15 day
THP-1 = test: Antitumor activity against human THP-1 cells assessed as cell growth inhibition treated for 10 to 15 days; assay type: functional; conditions: time 10-15 day
[13] = molecular target: Ribosomal protein S6 kinase alpha-2 (Homo sapiens) (UniProt Q15349); test: Inhibition of N-terminal GST-fused human full length RSK3 (1 to 733 residues) expressed in baculovirus expression system using S6K peptide(N-FL) as substrate at 1 uM in presence of ATP by Mobility shift assay
U-937 = test: Antitumor activity against human U-937 cells assessed as cell growth inhibition treated for 10 to 15 days; assay type: functional; conditions: time 10-15 day
LS-411N = test: Antitumor activity against human LS-411N cells assessed as cell growth inhibition treated for 10 to 15 days; assay type: functional; conditions: time 10-15 day
HCT-15 = test: Antitumor activity against human HCT-15 cells assessed as cell growth inhibition treated for 10 to 15 days; assay type: functional; conditions: time 10-15 day
BT-20 = test: Antitumor activity against human BT-20 cells assessed as cell growth inhibition treated for 10 to 15 days; assay type: functional; conditions: time 10-15 day
Daudi = test: Antitumor activity against human Daudi cells assessed as cell growth inhibition treated for 10 to 15 days; assay type: functional; conditions: time 10-15 day
[14] = molecular target: Histone-lysine N-methyltransferase NSD3 (Homo sapiens, UniProt Q9BZ95); test: Inhibition of human NSD3 using Nucleosomes and [3H]SAM as substrate incubated for 30 mins to 1 hr by HotSpot kinase assay
Hs746T = test: Antitumor activity against human Hs746T cells assessed as cell growth inhibition treated for 10 to 15 days; assay type: functional; conditions: time 10-15 day
[15] = molecular target: Histone-lysine N-methyltransferase SETD1B (Homo sapiens, UniProt Q9UPS6); test: Inhibition of human SET1B using Core Histone and [3H]SAM as substrate incubated for 30 mins to 1 hr by HotSpot kinase assay
KURAMOCHI = test: Antitumor activity against human KURAMOCHI cells assessed as cell growth inhibition treated for 10 to 15 days; assay type: functional; conditions: time 10-15 day

Sequence of Protein kinase C iota type (Homo sapiens) (P41743 whole entry, the tested form may be a part): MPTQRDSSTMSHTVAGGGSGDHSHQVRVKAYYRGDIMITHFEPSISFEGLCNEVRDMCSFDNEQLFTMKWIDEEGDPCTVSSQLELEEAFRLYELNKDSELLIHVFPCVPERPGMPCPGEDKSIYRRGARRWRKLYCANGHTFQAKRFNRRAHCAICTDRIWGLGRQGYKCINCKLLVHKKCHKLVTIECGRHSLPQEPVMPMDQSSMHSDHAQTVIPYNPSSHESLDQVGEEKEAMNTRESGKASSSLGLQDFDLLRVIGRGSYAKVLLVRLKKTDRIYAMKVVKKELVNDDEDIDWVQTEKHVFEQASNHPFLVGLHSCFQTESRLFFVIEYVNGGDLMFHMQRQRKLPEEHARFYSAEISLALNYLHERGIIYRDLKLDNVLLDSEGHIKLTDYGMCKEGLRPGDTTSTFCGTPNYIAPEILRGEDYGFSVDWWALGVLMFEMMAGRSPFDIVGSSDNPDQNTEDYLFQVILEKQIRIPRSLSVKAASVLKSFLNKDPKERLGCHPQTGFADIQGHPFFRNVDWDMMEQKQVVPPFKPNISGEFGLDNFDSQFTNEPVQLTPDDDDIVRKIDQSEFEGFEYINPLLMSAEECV
Sequence of Ribosomal protein S6 kinase alpha-2 (Homo sapiens) (Q15349 whole entry, the tested form may be a part): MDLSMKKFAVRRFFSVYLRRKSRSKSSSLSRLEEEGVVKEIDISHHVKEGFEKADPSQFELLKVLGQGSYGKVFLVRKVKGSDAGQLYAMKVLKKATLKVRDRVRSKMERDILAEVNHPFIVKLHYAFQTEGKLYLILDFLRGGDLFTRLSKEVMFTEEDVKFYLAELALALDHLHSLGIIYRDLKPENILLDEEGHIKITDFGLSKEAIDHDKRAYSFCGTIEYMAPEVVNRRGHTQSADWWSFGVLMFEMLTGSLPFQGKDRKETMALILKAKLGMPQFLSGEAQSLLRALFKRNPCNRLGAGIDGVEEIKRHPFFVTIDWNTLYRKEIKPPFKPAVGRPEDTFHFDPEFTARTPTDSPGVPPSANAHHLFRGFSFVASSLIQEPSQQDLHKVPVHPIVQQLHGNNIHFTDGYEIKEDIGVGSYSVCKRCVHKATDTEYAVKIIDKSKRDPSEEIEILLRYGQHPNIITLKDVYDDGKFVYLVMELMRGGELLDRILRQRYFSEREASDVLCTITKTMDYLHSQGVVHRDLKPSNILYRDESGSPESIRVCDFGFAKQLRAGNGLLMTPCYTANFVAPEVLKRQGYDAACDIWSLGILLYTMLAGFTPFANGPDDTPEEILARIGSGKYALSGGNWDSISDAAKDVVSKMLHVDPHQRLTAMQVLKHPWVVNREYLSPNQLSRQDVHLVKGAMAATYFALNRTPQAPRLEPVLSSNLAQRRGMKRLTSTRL
Sequence of Histone-lysine N-methyltransferase SETD1B (Q9UPS6 whole entry): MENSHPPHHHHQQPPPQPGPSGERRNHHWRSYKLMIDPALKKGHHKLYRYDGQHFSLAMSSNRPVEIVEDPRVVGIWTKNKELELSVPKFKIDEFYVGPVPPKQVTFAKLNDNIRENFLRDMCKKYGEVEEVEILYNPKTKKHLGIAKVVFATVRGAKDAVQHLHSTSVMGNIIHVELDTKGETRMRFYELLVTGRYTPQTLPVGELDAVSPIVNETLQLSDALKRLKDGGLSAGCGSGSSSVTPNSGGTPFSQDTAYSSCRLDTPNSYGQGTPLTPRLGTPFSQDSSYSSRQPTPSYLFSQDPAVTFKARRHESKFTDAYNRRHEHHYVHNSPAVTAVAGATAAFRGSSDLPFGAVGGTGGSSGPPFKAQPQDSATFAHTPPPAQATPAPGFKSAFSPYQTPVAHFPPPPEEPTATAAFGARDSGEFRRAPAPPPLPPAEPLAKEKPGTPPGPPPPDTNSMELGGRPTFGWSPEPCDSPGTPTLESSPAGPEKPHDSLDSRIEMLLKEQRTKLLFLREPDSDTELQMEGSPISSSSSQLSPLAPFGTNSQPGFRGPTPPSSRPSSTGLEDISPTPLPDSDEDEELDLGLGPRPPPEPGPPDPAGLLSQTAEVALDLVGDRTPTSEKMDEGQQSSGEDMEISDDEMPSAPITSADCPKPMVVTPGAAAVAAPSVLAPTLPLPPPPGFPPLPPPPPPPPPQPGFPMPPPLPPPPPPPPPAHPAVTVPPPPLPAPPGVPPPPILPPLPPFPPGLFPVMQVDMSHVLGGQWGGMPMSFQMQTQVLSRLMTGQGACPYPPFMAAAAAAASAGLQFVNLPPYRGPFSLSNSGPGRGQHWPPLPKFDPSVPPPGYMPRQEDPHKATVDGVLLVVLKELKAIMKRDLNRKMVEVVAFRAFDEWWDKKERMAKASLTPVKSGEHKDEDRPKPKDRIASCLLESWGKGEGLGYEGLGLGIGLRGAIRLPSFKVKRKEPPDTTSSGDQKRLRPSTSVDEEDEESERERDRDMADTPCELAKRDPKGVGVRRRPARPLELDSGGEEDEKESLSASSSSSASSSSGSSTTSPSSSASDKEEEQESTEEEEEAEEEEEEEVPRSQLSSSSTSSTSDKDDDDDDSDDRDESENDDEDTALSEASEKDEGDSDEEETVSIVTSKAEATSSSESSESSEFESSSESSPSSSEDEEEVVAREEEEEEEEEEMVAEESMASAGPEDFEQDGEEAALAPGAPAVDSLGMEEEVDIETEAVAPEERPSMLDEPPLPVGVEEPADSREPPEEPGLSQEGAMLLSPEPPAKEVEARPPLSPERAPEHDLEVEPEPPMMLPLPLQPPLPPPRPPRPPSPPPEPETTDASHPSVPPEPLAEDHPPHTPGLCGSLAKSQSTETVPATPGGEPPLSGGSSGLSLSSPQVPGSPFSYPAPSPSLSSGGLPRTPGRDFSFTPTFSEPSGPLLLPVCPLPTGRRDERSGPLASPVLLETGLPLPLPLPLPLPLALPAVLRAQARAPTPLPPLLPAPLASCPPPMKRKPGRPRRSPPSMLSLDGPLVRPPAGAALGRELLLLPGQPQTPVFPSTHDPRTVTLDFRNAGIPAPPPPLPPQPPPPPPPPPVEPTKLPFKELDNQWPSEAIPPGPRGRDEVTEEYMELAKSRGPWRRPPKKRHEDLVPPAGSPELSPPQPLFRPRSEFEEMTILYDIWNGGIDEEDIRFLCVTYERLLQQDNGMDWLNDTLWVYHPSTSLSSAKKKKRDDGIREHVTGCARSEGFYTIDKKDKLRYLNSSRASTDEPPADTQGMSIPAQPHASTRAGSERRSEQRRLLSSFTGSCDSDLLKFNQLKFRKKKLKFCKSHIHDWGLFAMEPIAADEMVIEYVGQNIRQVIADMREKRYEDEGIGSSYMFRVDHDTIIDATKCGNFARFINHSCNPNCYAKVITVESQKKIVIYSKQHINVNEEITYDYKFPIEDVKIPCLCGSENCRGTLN
Sequence of Histone-lysine N-methyltransferase NSD3 (Q9BZ95 whole entry): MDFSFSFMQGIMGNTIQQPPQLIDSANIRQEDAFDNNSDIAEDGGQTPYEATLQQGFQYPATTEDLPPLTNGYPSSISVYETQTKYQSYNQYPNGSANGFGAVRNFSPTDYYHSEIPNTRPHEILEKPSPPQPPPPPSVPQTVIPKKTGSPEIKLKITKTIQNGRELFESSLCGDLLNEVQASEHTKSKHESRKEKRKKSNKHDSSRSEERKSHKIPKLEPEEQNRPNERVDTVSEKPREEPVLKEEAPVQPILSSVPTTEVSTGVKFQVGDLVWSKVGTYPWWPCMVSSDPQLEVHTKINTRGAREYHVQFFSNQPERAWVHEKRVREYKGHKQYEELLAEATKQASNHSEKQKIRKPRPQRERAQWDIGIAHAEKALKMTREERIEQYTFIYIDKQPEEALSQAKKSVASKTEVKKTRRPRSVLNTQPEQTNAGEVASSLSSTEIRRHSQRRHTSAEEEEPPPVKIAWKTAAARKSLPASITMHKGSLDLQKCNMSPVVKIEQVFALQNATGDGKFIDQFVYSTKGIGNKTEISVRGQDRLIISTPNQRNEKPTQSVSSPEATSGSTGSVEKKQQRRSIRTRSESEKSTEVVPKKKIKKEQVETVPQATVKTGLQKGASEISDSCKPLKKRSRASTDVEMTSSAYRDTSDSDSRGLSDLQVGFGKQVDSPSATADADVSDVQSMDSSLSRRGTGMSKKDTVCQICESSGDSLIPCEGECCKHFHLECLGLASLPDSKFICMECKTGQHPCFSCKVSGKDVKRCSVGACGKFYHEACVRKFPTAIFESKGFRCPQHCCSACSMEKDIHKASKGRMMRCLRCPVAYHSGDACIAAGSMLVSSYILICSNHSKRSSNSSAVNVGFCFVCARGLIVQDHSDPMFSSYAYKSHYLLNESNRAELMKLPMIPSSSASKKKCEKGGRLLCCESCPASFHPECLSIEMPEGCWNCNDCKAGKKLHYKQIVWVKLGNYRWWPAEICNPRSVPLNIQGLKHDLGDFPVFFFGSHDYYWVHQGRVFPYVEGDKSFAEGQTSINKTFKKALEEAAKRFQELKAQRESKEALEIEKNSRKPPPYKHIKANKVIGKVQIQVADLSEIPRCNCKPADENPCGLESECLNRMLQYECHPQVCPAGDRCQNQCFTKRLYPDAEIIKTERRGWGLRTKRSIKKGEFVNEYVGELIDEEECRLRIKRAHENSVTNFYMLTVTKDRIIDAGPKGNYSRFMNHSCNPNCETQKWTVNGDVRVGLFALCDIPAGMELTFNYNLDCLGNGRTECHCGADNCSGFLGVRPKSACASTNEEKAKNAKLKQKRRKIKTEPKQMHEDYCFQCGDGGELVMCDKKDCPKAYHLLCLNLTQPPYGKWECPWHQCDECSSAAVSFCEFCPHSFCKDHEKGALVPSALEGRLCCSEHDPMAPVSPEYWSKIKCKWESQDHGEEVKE

In the case of Cc1cc(C)c(CNC(=O)c2cc(Br)c3c(c2C)O[C@@](C)([C@H]2CC[C@H](N(C)C)CC2)O3)c(=O)[nH]1, the Activity [1] is reported as 105 mEq/L, the inhibition [2] is reported as 22.3% and the Activity (KARPAS-422) is reported as “Dose-Dependent Effect”. For the same compound, the Activity [3] was “Non-Toxic”, the Activity [4] was “Toxic” and the Activity [5] was 27.5 U/L. For the same compound, the Activity [6] was 71.8 U/L, the Activity [7] was 137 U/L and the Activity [8] was 64 mg/dL. For the same compound, the Activity [9] was 0.583 10^3 /uL.

Compound Cc1cc(C)c(CNC(=O)c2cc(Cl)c3c(c2C)O[C@@](C)([C@H]2CC[C@H](N(C)C)CC2)O3)c(=O)[nH]1 [VALEMETOSTAT] has a GI50 (MKN-45) of over 1 µM, a GI50 (Jurkat) of over 1 µM and a GI50 [10] of over 1 µM. It also gave a GI50 (RPMI-6666) of 0.0684 µM, a GI50 (BT-549) of over 1 µM and a GI50 (KG-1) of 0.7 µM. It also gave a GI50 (RPMI-8226) of 0.00191 µM, a GI50 (ACHN) of over 1 µM and a GI50 (LNCaP-Clone-FGC) of 0.00553 µM. The GI50 (NCI-H446) was 0.124 µM, the GI50 (SJRH30) was over 1 µM and the GI50 (K562) was 0.788 µM. It also gave a GI50 (U-266) of 0.00688 µM, a GI50 [11] of 0.142 µM and a GI50 (H9) of 0.00958 µM. For the same compound, the GI50 (Hs-578T) was over 1 µM, the GI50 (AGS) was over 1 µM and the GI50 (NALM-6) was over 1 µM. For the same compound, the GI50 (NUGC-3) was 0.92 µM, the GI50 (CEM/C2) was over 1 µM and the GI50 (HGC-27) was over 1 µM. For the same compound, the GI50 [12] was over 1 µM, the GI50 (THP-1) was 0.0681 µM and the inhibition [13] was -3.9%. The GI50 (U-937) was over 1 µM, the GI50 (LS-411N) was over 1 µM and the GI50 (HCT-15) was over 1 µM. It also gave a GI50 (BT-20) of over 1 µM, a GI50 (Daudi) of over 1 µM and an IC50 [14] of 100 µM. For the same compound, the GI50 (Hs746T) was over 1 µM, the IC50 [15] was 100 µM and the GI50 (KURAMOCHI) was over 1 µM.
